Test results as given in publication PMC12583704 (Signal Transduction and Targeted Therapy, 2025).

Test: Phase 1 study NCT03594422: adverse events graded by NCI CTCAE v4.03
Format: in vivo, human
Protocol: Part 1 was a dose-escalation study to determine the recommended phase 2 dose (RP2D) in solid tumors. […] The initial design was a 3 + 3 dose escalation from 20 mg, but the protocol was amended to randomly enroll and assign patients to starting doses of 30, 40, and 50 mg on the basis of safety data acquired in the CML trial.[20] […] An interactive web response system was used for randomization. Part 2 was a nonrandomized study focusing on patients with SDH-deficient GISTs. […] On the basis of preliminary data from adult patients, adolescent patients with advanced wild-type GISTs were also included in Part 2. The dosage for adolescents was adjusted according to their body weights.
AEs were evaluated at each follow-up visit: on Days 1, 8, 15, and 22 during Cycles 1 and 2; and on Days 1 and 15 in Cycle 3 and all subsequent cycles, up to 30 days after the final dose. All AEs were graded according to the National Cancer Institute Common Terminology Criteria for Adverse Events v4.03. Clinical laboratory investigations for routine blood examinations and serum chemistry parameters were performed during every cycle (on Day 1), during Cycles 1 and 2 (on Days 8, 15, and 22), and 30 days after the last dose of treatment. Urinalysis, coagulation, cardiac troponin I/T, lipase, amylase, and electrocardiographic evaluations were conducted at baseline; during Cycles 1 and 2 (on Days 1 and 15); during Cycles 3, 5, 7, and 9; every three cycles after Cycle 9 (on Day 1); and 14 days after the last dose of treatment. All patients underwent tumor imaging for response assessment via computed tomography or magnetic resonance imaging at screening and every two cycles (8 weeks) until progression or discontinuation. Target and nontarget lesions were assessed per the Response Evaluation Criteria in Solid Tumors version 1.1 (RECIST v1.1).

Cc1ccc(C(=O)Nc2ccc(CN3CCN(C)CC3)c(C(F)(F)F)c2)cc1C#Cc1cnc2[nH]ncc2c1 [Olverembatinib, 3-[(1H-pyrazolo[3,4-b]pyridin-5-yl)ethynyl]-4-methyl-N-{4-[(4-methylpiperazin-1-yl)methyl]-3-(trifluoromethyl)phenyl]benzamide]
14 (43.8) n (%): TEAE: Anemia (40 mg (n = 32), Any grade) | TEAE: Aspartate aminotransferase increased (40 mg (n = 32), Any grade) | TRAE: Pyrexia (40 mg (n = 32), Any grade)
10 (31.3) n (%): TEAE: Melanocytic nevus (40 mg (n = 32), Any grade)
5 (33.3) n (%): TRAE: AST increased (30 mg (n = 15), Any grade) | TEAEs (30 mg (n = 15), Grade 3-5)
12 (37.5) n (%): TEAE: Neutrophil count increased (40 mg (n = 32), Any grade) | TRAE: AST increased (40 mg (n = 32), Any grade) | TRAE: Leukocyte count increased (40 mg (n = 32), Any grade)
7 (21.9) n (%): TEAE: Abdominal pain (40 mg (n = 32), Any grade)
17 (53.1) n (%): TEAE: Hyperuricemia (40 mg (n = 32), Any grade) | TEAE: Pyrexia (40 mg (n = 32), Any grade)
3 (9.4) n (%): TRAE: Hypoalbuminemia (40 mg (n = 32), Any grade)
32 (100.0) n (%): TEAEs (40 mg (n = 32), Any grade)
3 (20.0) n (%): TRAE: Blood creatinine increased (30 mg (n = 15), Any grade) | TRAE: Melanocytic nevus (30 mg (n = 15), Any grade)
9 (28.1) n (%): TRAE: Fatigue (40 mg (n = 32), Any grade) | TRAE: Neutrophil count increased (40 mg (n = 32), Any grade)
4 (26.7) n (%): TRAE: Constipation (30 mg (n = 15), Any grade) | TRAE: Fatigue (30 mg (n = 15), Any grade) | TRAE: Hypoalbuminemia (30 mg (n = 15), Any grade)
2 (6.3) n (%): TEAE: Anemia (40 mg (n = 32), Grade 3-5)
1 (6.7) n (%): TRAE: Anemia (30 mg (n = 15), Any grade) | TRAE: Platelet count increased (30 mg (n = 15), Any grade) | TRAE: Pyrexia (30 mg (n = 15), Any grade) | TEAE: Abdominal pain (30 mg (n = 15), Grade 3-5) | TEAE: Anemia (30 mg (n = 15), Grade 3-5) | TEAE: Hyperuricemia (30 mg (n = 15), Grade 3-5)
5 (15.6) n (%): TEAE: Hypoalbuminemia (40 mg (n = 32), Any grade) | TRAE: Blood creatinine increased (40 mg (n = 32), Any grade)
8 (25.0) n (%): TEAE: C-reactive protein increased (40 mg (n = 32), Any grade) | TRAE: Melanocytic nevus (40 mg (n = 32), Any grade)
11 (34.4) n (%): TEAE: Fatigue (40 mg (n = 32), Any grade) | TRAE: ALT increased (40 mg (n = 32), Any grade)
15 (46.9) n (%): TEAE: Leukocyte count increased (40 mg (n = 32), Any grade)
13 (40.6) n (%): TEAE: Alanine aminotransferase increased (40 mg (n = 32), Any grade) | TEAE: Constipation (40 mg (n = 32), Any grade) | TRAE: Constipation (40 mg (n = 32), Any grade)
6 (40.0) n (%): TRAE: Leukocyte count increased (30 mg (n = 15), Any grade) | TRAE: Neutrophil count increased (30 mg (n = 15), Any grade)
0 n (%): TEAE: Alanine aminotransferase increased (30 mg (n = 15), Grade 3-5) | TEAE: Aspartate aminotransferase increased (30 mg (n = 15), Grade 3-5) | TEAE: C-reactive protein increased (30 mg (n = 15), Grade 3-5) | TEAE: Constipation (30 mg (n = 15), Grade 3-5) | TEAE: Fatigue (30 mg (n = 15), Grade 3-5) | TEAE: Hypoalbuminemia (30 mg (n = 15), Grade 3-5) | TEAE: Leukocyte count increased (30 mg (n = 15), Grade 3-5) | TEAE: Melanocytic nevus (30 mg (n = 15), Grade 3-5) | TEAE: Neutrophil count increased (30 mg (n = 15), Grade 3-5) | TEAE: Pyrexia (30 mg (n = 15), Grade 3-5) | TRAE: ALT increased (30 mg (n = 15), Grade 3-5) | TRAE: AST increased (30 mg (n = 15), Grade 3-5) | TRAE: Anemia (30 mg (n = 15), Grade 3-5) | TRAE: Blood creatinine increased (30 mg (n = 15), Grade 3-5) | TRAE: Constipation (30 mg (n = 15), Grade 3-5) | TRAE: Fatigue (30 mg (n = 15), Grade 3-5) | TRAE: Hypoalbuminemia (30 mg (n = 15), Grade 3-5) | TRAE: Leukocyte count increased (30 mg (n = 15), Grade 3-5) | TRAE: Melanocytic nevus (30 mg (n = 15), Grade 3-5) | TRAE: Neutrophil count increased (30 mg (n = 15), Grade 3-5) | TRAE: Platelet count increased (30 mg (n = 15), Grade 3-5) | TRAE: Pyrexia (30 mg (n = 15), Grade 3-5) | TEAE: Abdominal pain (40 mg (n = 32), Grade 3-5) | TEAE: Alanine aminotransferase increased (40 mg (n = 32), Grade 3-5) | TEAE: Aspartate aminotransferase increased (40 mg (n = 32), Grade 3-5) | TEAE: C-reactive protein increased (40 mg (n = 32), Grade 3-5)
4 (12.5) n (%): TRAE: Anemia (40 mg (n = 32), Any grade) | TRAE: Platelet count increased (40 mg (n = 32), Any grade)
